Results taken from the NIST ThermoML archive (doi:10.1021/je100177u).
± gives the expanded uncertainty stated by the source.

Conditions: 298.15 K; for surface tension liquid-gas: Drop volume; for mass density: 101.33 kPa, Liquid

Row | Compound | surface tension liquid-gas [mN/m] | mass density [kg/m3]
1 | CCCCCl [1-chlorobutane] | 23.29 ± 0.18 | 880.69 ± 0.61
2 | CC(C)CO [2-methyl-1-propanol] | 22.47 ± 0.15 | 797.77 ± 0.62
3 | CC(C)(C)O [2-methylpropan-2-ol] | 20.3 ± 0.14 | 780.78 ± 0.65
4 | CCCCO [butan-1-ol] | 24.25 ± 0.15 | 805.8 ± 0.29
5 | CCC(C)O (configuration not stated) [butan-2-ol] | 23.08 ± 0.18 | 802.44 ± 0.73
6 | CCCCCC [hexane] | 18.06 ± 0.16 | 655.07 ± 0.98
